From patent US9549988B2, “Pharmaceutical compounds targeted by MIF affinity-tethered moieties” (RJS Biologics LLC, priority 2013, dated 2017) come the findings set out here.

Structures are written as SMILES. Like-named read-outs stand apart in the source and are kept apart here.

The subject of test [1] is large cell lung cancer cell lines (NCI-H460). Kind of test: WST-8 cellular proliferation assay, NCI-H460 lung cancer cells. In kind it is cell-based. The note with it: for IC50: Table 4, EGFRi derivatives, WST-8, read-out: IC50 Cancer Cells ATCC NCI-H460; for Selectivity: Table 4, 1° fibroblasts versus NCI-H460 cancer cells. (In general: Tetrazolium dyes change colour on reduction, which living cells bring about.)

Test [2] has as its system Normal Human Adult Dermal Fibroblasts (ATCC PCS-201-012). In words: WST-8 cellular proliferation assay, primary dermal fibroblasts. The note with it: for IC50: read-out: IC50 1° Fibroblasts, Table 4, EGFRi derivatives. The class given is cell-based. Here is the method: (§1) Assays were performed according to the manufactures instructions.
A further test has as its system THP-1 leukemia cells. Kind of test: Flow cytometry uptake by THP-1 cells in presence of ISO-1. The class given is cell-based, human. The note with it: FIG. 22, 2 hrs at 37° C. Here is the method:
This example illustrates an in vitro experiment using predictive models of cancer to show the cellular specificity and potential therapeutic utility of the inventive compounds. The human leukemic cell line THP-1 was grown AIM-V serum free medium Gibco Life Sciences (Grand Island, N.Y.). […] Then the washed THP-1 cells were added to the drug dilutions to start the experiment ˜75,000 cells per well. Test compounds were incubated 2 hrs at 37° C., then the plate was read by flow cytometry BD Canto 2 (80 μl˜25,000 cells). A population of Single Round “average” cells was selected by FSC and SSC—constituting %70 of the total cell population examined. The amount of doxorubicin uptake was evaluated for this population in the PE channel.

Test [3] has as its system large cell immunoblastic lymphoma cell lines (ATCC SR). In words: WST-8 cellular proliferation assay, ATCC SR lymphoma cells. The class given is cell-based. As to conditions: Table 2; 1° fibroblasts versus ATCC SR cancer cells. Here is the method: as §1
Test [4] concerns THP-1 leukemia cells mixed with non-cancerous PBMC cells. Kind of test: Flow cytometry drug uptake in mixed THP-1 / PBMC population. As to conditions: FIG. 21; THP-1 added to PBMC; 0.8 μM; 2-2.5 h; PE channel. In kind it is cell-based, human. As to the method: This example illustrates an in vitro experiment using predictive models of cancer to show the cellular specificity and potential therapeutic utility of the inventive compounds. The human leukemic cell line THP-1 was grown in RPMI 1640 medium with penicillin, streptomycin, and containing 25 mM Hepes, 0.05 mM 2-mercaptoethanol, 10% fetal bovine serum and 2 mM L-glutamine. Cells washed 2× with Gibco Life Sciences (Grand Island, N.Y.) AIM-V serum free medium and then were inoculated into 96 well microtiter plates in 100 μL at plating densities ranging from 25,000 to 100,000 cells/well. Five to ten million frozen peripheral blood mononuclear cells (PBMCs) (Astarte Biologics, LLC. (Redmond, Wash.)) in a solution of 10% DMSO, 2% human serum albumin in phosphate buffered saline were thawed and immediately washed in AIM-V media. An approximately equal number of these cells (25,000 to 100,000 cells/well) were added to the experimental plate. Doxorubicin was added to a final concentration of 0.8 μM. The microtiter plates were incubated at 37° C., 5% CO2, 95% air and 100% relative humidity for 2-2.5 h then drug uptake was quantified by flow cytometry for example using a BD FACSCanto II (San Jose, Calif.). Doxorubicin uptake was evaluated in the PE channel. Individual cell populations were identified by size, shape and through the use of dye labeled antibodies.
In general terms: A flow cytometer gives signals particle by particle.

Test [5] concerns Human tumor cell lines of a cancer screening panel. In words: Sulforhodamine B (SRB) cellular proliferation assay, cancer screening panel. The class given is cell-based. The note with it: 10 μM. Here is the method: This example illustrates several in vitro experiments in predictive models of cancer to show the potential therapeutic utility of the disclosed compounds. Human tumor cell lines of a cancer screening panel were grown in RPMI 1640 medium containing 5% fetal bovine serum and 2 mM L-glutamine. Cells were inoculated into 96 well microtiter plates in 100 μL at plating densities ranging from 5,000 to 40,000 cells/well depending on the doubling time of individual cell lines. After cell inoculation, the microtiter plates were incubated at 37° C., 5% CO2, 95% air and 100% relative humidity for 24 h prior to addition of experimental drugs.
After 24 h, two plates of each cell line were fixed in situ with trichloroacetic acid (TCA), to represent a measurement of the cell population for each cell line at the time of drug addition (T=zero). Experimental drugs were solubilized in dimethyl sulfoxide at 400-fold the desired final maximum test concentration and stored frozen prior to use. […]
Following drug addition, the plates were incubated for an additional 48 h at 37° C., 5% CO2, 95% air, and 100% relative humidity. […] Bound stain was subsequently solubilized with 10 mM trizma base, and the absorbance was read on an automated plate reader at a wavelength of 515 nm. […] Using the seven absorbance measurements [time zero, (T=zero), control growth, (C), and test growth in the presence of drug at the five concentration levels (Ti)], the percentage growth was calculated at each of the drug concentrations levels.
Percentage growth inhibition was calculated as: [(Ti−Tzero)/(C−Tzero)]×100 for concentrations for which Ti>/=Tzero [(Ti−Tzero)/Tzero]×100 for concentrations for which Ti<Tzero. Three dose response parameters were calculated for each experimental agent. […] The drug concentration resulting in total growth inhibition (TGI) was calculated from Ti=Tzero. […] The same procedures were used to create FIGS. 19 and 20 except a single 10 μM data point was recorded for each cell line.

Setting [6] is: FIG. 20, 14 diverse cancer cell lines.

For orientation: IC50 means the concentration needed to halve the response being measured. As to `COc1cc2ncnc(Nc3ccc(F)c(Cl)c3)c2cc1NC(=O)/C=C/CN1CCCCC1` [Docomitinib (PF-00299804), Docomitinib], in test [1], the IC50 is 10.6 µM and the Selectivity turned out to be 0.08. Besides, the IC50 in test [2] worked out at 0.89 µM.

Take `COc1cccc2c1C(=O)c1c(O)c3c(c(O)c1C2=O)C[C@@](O)(C(=O)CO)C[C@@H]3O[C@H]1C[C@H](N)[C@H](O)[C@H](C)O1` [Doxorubicin]: the “inhibition of cellular uptake by ISO-1” value with THP-1 leukemia cells was “not inhibited”. This compound displayed a Selectivity in test [3] of 26. In addition, in test [4], the “preferential cellular uptake by cancer cells over non-cancerous cells” value was “little preference for the cancer cell line”. In addition, the IC50 1° Fibroblasts in test [2] (Table 2, Doxorubicin derivatives) came out at 0.185 ± 0.5 µM.

For the compound `COc1cc2c(Nc3ccc(F)c(Cl)c3)ncnc2cc1OCCOCCNC(=O)COc1ccc(Cn2c(=O)oc3ccc(C)cc32)cc1O` [RJS012_1], the IC50 in test [1] (Homo sapiens, NCI-H460) was 3.6 µM; in test [2] (Homo sapiens, Fibroblast), 6.7 µM. For the same compound, in test [1], the Selectivity came out at 1.9.

Regarding `C#Cc1cccc(Nc2ncnc3cc(OCCOC)c(OCCOC)cc23)c1` [Tarceva ® (Erlotinib), Erlotinib], the IC50 in test [1] (Homo sapiens, NCI-H460) was 12.6 µM; in test [2] (Homo sapiens, Fibroblast) it was 4.7 µM. Also, the Selectivity in test [1] is listed as 0.37.

`Cc1ccc2oc(=O)n(Cc3ccc(OCC(=O)O)c(O)c3)c2c1` [compound 7, (2-hydroxy-4-[(5-methyl-2-oxo-1,3-benzoxazol-3(2H)-yl)methyl]phenoxy)acetic acid]: the “inhibition of cancer cell growth (average % inhibition)” value is given as “little if any potency” in test [5] (FIG. 19, 17 cancer cell lines) and “little potency” in test [5] (setting [6]).

`Cc1ccc2oc(=O)n(Cc3ccc(OCC(=O)NCCC[C@@H]4O[C@@H]5O[C@@]6(C)CC[C@H]7[C@H](C)CC[C@@H]([C@H]4C)[C@@]57OO6)c(O)c3)c2c1` [compound 11, 2-(2-hydroxy-4-((5-methyl-2-oxobenzo[d]oxazol-3(2H)-yl)methyl)phenoxy)-N-(3-((3R,5aS,6R,8aS,9R,10S,12R,12aR)-3,6,9-trimethyldecahydro-12H-3,12-epoxy[1,2]dioxepino[4,3-i]isochromen-10-yl)propyl)acetamide]: the “inhibition of cancer cell growth (average % inhibition)” value in test [5] (setting [6]) is listed as “substantial anti-cancer activity”.
